pEC50, pIC50: −log10 of the molar value.
Columns and labels:
[1] = system: Hepatitis C virus; assay: Inhibition of HCV 1b NS5B polymerase by Microbeta scintillation counter; set-up: species or system Hepatitis C virus subtype 1b
[2] = Inhibition of HCV 1a isolate H77 NS5B polymerase by Microbeta scintillation counter; set-up: species or system Hepatitis C virus subtype 1a
[3] = system: Hepatitis C virus; assay: Antiviral activity against HCV 1b infected in human Huh7/C24 after 72 hrs; type: functional, organism-based, Hepacivirus hominis; settings: genotype 1b, Huh-7, 72 h
[4] = Cytotoxicity against human Huh7/C24 after 72 hrs; type: cell-based, Huh-7; settings: Huh7/C24 cells
[5] = Metabolic stability in human liver microsomes assessed as half life; type: ADME, Microsome
[6] = Metabolic stability in human liver microsomes assessed as compound remaining at 1 uM after 60 mins; type: ADME, Microsome; settings: read-out: Stability
[7] = Metabolic stability in monkey liver microsomes assessed as half life; type: ADME, Macaca mulatta, Microsome; settings: rhesus monkey
[8] = Metabolic stability in monkey liver microsomes assessed as compound remaining at 1 uM after 60 mins; type: ADME, Macaca mulatta, Microsome; settings: rhesus monkey, read-out: Stability
[9] = Apparent permeability across human Caco-2 cells from apical to basolateral side in human Caco2 cell membrane; type: ADME, cell-based
[10] = Oral bioavailability in cynomolgus monkey at 1 mg/kg; type: ADME, organism-based, Macaca fascicularis; settings: in vivo
[11] = system: Cynomolgus monkey; assay: AUC (0 to infinity) in cynomolgus monkey at 1 mg/kg, po; type: ADME, organism-based, Macaca fascicularis, Plasma; set-up: time infinity, dose 1 mg/kg, route oral; settings: in vivo
[12] = Clearance in cynomolgus monkey at 1 mg/kg, iv; type: ADME, organism-based, Macaca fascicularis; set-up: dose 1 mg/kg, route intravenous; settings: in vivo
[13] = Ratio of plasma concentration in po dosed cynomolgus monkey after 12 hrs to EC50 for HCV 1b; type: ADME, organism-based; settings: in vivo
[14] = system: Cynomolgus monkey; assay: AUC (0 to infinity) in cynomolgus monkey at 1 mg/kg, iv; type: ADME, organism-based, Macaca fascicularis, Plasma; set-up: dose 1 mg/kg, route intravenous, time infinity; settings: in vivo

Compound	pIC50 [2]	pEC50 [3]	half-life [5]	remaining at 1 h, 1 µM [6]	half-life [7]	remaining at 1 h, 1 µM [8]	Papp A→B [9]	bioavailability [10]	AUC [11]	clearance [12]	Ratio [13]	AUC [14]	pIC50 [1]	CC50 at 72 h [4]
CS(=O)(=O)Nc1ccc2c(c1)S(=O)(=O)N=C(C1=C(O)[C@H]3CCCC[C@H]3N(Cc3ccc(F)cc3)C1=O)N2	7.20	6.92	> 60 min	99%	> 60 min	100%	0.67 ×10⁻⁶ cm/s	12%	2910 ng·h/mL	0.7 mL/min/kg	0.9	25300 ng·h/mL	7.57	> 1 µM
CS(=O)(=O)Nc1ccc2c(c1)S(=O)(=O)N=C(C1=C(O)[C@H]3CCC[C@H]3N(Cc3ccc(F)c(F)c3)C1=O)N2	7.54	7.35	> 60 min	88%	> 60 min	100%	0.83 ×10⁻⁶ cm/s	12%	1840 ng·h/mL	1.2 mL/min/kg	1.33	16000 ng·h/mL	> 8.00	> 1 µM
CS(=O)(=O)Nc1ccc2c(c1)S(=O)(=O)N=C(C1=C(O)[C@@H]3CCCC[C@@H]3N(Cc3ccc(F)cc3)C1=O)N2	7.37	6.46	> 60 min	80%	> 60 min	83%	1 ×10⁻⁶ cm/s	6%	610 ng·h/mL	1.7 mL/min/kg	0.03	10000 ng·h/mL	7.33	> 33 µM

Continued by rising pIC50 [2], values first:

pIC50 [2]	pEC50 [3]	half-life [5]	remaining at 1 h, 1 µM [6]	half-life [7]	remaining at 1 h, 1 µM [8]	Papp A→B [9]	bioavailability [10]	AUC [11]	clearance [12]	Ratio [13]	AUC [14]	Compound	pIC50 [1]	CC50 at 72 h [4]
7.18	7.48	16 min	–	8 min	–	3.1 ×10⁻⁶ cm/s	7%	239 ng·h/mL	4.9 mL/min/kg	0.11	3520 ng·h/mL	CC(C)(C)CCN1C(=O)C(C2=NS(=O)(=O)c3cc(NS(C)(=O)=O)ccc3N2)=C(O)C2CCCCC21 (racemic)	7.37	> 33 µM
7.38	7.13	47 min	–	> 60 min	81%	0.95 ×10⁻⁶ cm/s	14%	655 ng·h/mL	4.1 mL/min/kg	0.37	4840 ng·h/mL	CS(=O)(=O)Nc1ccc2c(c1)S(=O)(=O)N=C(C1=C(O)C3CCCCCC3N(Cc3ccc(F)cc3)C1=O)N2 (racemic)	7.24	> 33 µM

From ChEMBL document CHEMBL1153893, “5,6-Dihydro-1H-pyridin-2-ones as potent inhibitors of HCV NS5B polymerase” (Bioorg Med Chem Lett, 2009)
